Experiments:
0.25% caffeine solution = test: Sensory evaluation: bitterness reduction of a caffeine solution; format: in vivo; conditions: one trained sensory evaluator, vs control, dosage (ppm) per sample (20 to 50-100 ppm)
Experimental: (§1) The bitter blocker candidates listed in Table 1 were prepared into a 1% sample solution with propylene glycol (i.e., 1 g of bitter blocker per 100 ml of propylene glycol) and heated to ensure complete solubilization. […] A trained sensory evaluator was asked to estimate the perceived bitterness reduction against the control, as well as to provide comments on how the addition of the individual sample solution modulated the taste and mouth feel profile of the resulting caffeine solution.

[1] = test system: peach-flavored energy drink (caffeine, B vitamins); test: Sensory evaluation: bitterness reduction of a peach-flavored energy drink; format: in vivo; conditions: caffeine about 710 mg/l, dosage (ppm) per sample (20 to 50-100 ppm)
Experimental: as §1, with “The bitterness” for “The bitter”, “glycol” for “glycol (i.e., 1 g of bitter blocker per 100 ml of propylene glycol)”, “resulting peach-flavored energy drink.” for “resulting caffeine solution.”

[2] = test system: melted dark chocolate pieces with 100% dark cacao; test: Sensory evaluation: bitterness reduction of dark chocolate pieces; format: in vivo; conditions: dosage 50 or 100 ppm per sample
Experimental: (§2) The bitterness blocker candidates listed in Table 1 were prepared into a 1% sample solution with propylene glycol and heated to ensure complete solubilization. […] Individually, the respective sample solution was added to melted dark chocolate pieces with 100% dark cacao. A trained sensory evaluator was asked to estimate the perceived bitterness reduction against the control, as well as to provide comments on how the addition of the individual sample solution modulated the taste and mouth feel profile of the resulting melted dark chocolate pieces.

dark roast coffee = test: Sensory evaluation: bitterness reduction of dark roast coffee; format: in vivo; conditions: dosage 50 or 100 ppm per sample
Experimental: (§3) The bitterness blocker candidates listed in Table 1 were prepared into a 1% sample solution with propylene glycol and heated to ensure complete solubilization. […] A trained sensory evaluator was asked to estimate the perceived bitterness reduction against the control, as well as to provide comments on how the addition of the individual sample solution modulated the taste and mouth feel profile of the resulting dark roast coffee.

[3] = test system: cough syrup DELSYM (dextromethorphan HBr); test: Sensory evaluation: bitterness reduction of cough syrup DELSYM; format: in vivo; conditions: dosage 50 or 100 ppm per sample
Experimental: as §2, with “a cough syrup sold under the trade name DELSYM®. The bitter-tasting agent contained in the cough syrup were dextromethorphan HBr USP 30 mg (as measured for each 5 ml teaspoon, i.e., 6000 mg/l of dextromethorphan).” for “melted dark chocolate pieces with 100% dark cacao.”, “cough syrup.” for “melted dark chocolate pieces.”

CBD isolate nanoemulsion = test: Sensory evaluation: bitterness reduction of CBD isolate; format: in vivo; conditions: dosage 50 or 100 ppm per sample
Experimental: as §3, with “solubilization. […] A CBD isolate was emulsified into a water-soluble nanoemulsion first, to which was added the respective sample solution.” for “solubilization.”, “nanoemulsion.” for “dark roast coffee.”

THC nanoemulsion = test: Sensory evaluation: bitterness reduction of THC; format: in vivo; conditions: dosage 50 or 100 ppm per sample
Experimental: The bitterness blocker candidates listed in Table 1 were prepared into a 1% sample solution with propylene glycol and heated to ensure complete solubilization. […] THC was first emulsified into a water-soluble nanoemulsion (10 mg THC per serving), to which was added the respective sample solution. A trained sensory evaluator was asked to estimate the perceived bitterness reduction against the control, as well as to provide comments on how the addition of the individual sample solution modulated the taste and mouth feel profile of the resulting nanoemulsion.

caffeine in water = test: Two-alternative forced choice (2AFC) difference test; format: in vivo
Experimental: The bitter blocker candidates BB09, BB11, and BB13 were subject to a two-alternative forced choice (2AFC) difference test wherein panelists were presented Control Caffeine solutions and Test solutions containing caffeine and one of three bitterness blocker candidates (BB09, BB 11, or BB13). Panelists were asked to evaluate the two samples and answer the question, “which one is more hitter?”
BB09 and BB11 were tested first. Three ounces of control (caffeine in water), BB09 in caffeine water, and BB11 in caffeine water were presented at room temperature in separate plastic souffle cups labeled with 3-digit codes. Ten sensory trained panelists evaluated each sample in three repetitions with a 10 minute break between repetitions. Panelists then completed the 2AFC. Data was collected on EveQuestion and analyzed on XLSTAT. Testing was conducted at Sensations Research according to FEMA guidelines.
BB13 was tested separately. Two ounces of control (caffeine in water), BB13 in caffeine water were presented at room temperature in separate plastic souffle cups labeled with 3-digit codes. Fifteen participants evaluated each sample in two repetitions with a 10 minute break between repetitions for a total of thirty evaluations as per the FEMA guidelines. Panelists then completed the 2AFC to identify the more bitter sample. Data was collected and analyzed on Compusense.

[4] = test system: bitter-responsive human taste bud tissue-derived cells (hTBEC); test: ATP secretion detection assay (luminescence); format: cell-based
Experimental: The bitter blocker candidates were further characterized using bitter-responsive human taste bud tissue-derived cells (hTBEC) platforms and bioassays. Bitter-responsive hTBECs were treated with hitter blocker candidates and various bitter agonists to assess the efficacy of each bitter blocker candidate in reducing the bitterness of each of the various bitter agonists.
One industry standard bitter agonist was used as a control (L-Praziquantel), and five bitter blocker controls were used (Senomyx BB68, STX-001, sodium gluconate, eridictyol, and homoeridictyol).
BB09, BB11, and BB13 were first tested at various concentrations in combination with 100 μM Dextromethorphan-HBr.
Next, bitter blocker concentration ranges were narrowed (100 μM-1,000 μM) and compared to a fixed concentration of stimulus. […] BB13 was evaluated further by real time ATP secretion detection in pooled hTBEC 66 cells treated with 300 μM Theobromine.
Each culture was treated with BB09, BB11, BB13, STX001, or Senomyx BB68, as well as either Dextromethorphan-HBr at 1000 μM (FIGS. 18A-18C), Theobromine at 1,000 μM (FIGS. 19A-19C), Rebaudioside A at 1 mM (FIGS. 20A-20C), or Caffeine at 3 mM (FIGS. 21A-21C).

COc1cc([C@@H]2CC(=O)c3c(O)cc(O)cc3O2)ccc1O[C@@H]1O[C@H](CO)[C@@H](O)[C@H](O)[C@H]1O [BB11, Homoeriodictyol 4′-O-glucoside]
Estimated % bitterness reduction (0.25% caffeine solution): 60-80% ^ | Estimated % bitterness reduction [1]: 80% | Comments [2]: Good bitterness reduction but | Estimated % bitterness reduction [2]: 60% | Estimated % bitterness reduction (dark roast coffee; caffeine about 740 mg/l): 80% | Comments (dark roast coffee): Nice upfront bitterness reduction | Estimated % bitterness reduction ([3]; 6000 mg/l of dextromethorphan): 60% | Comments [3]: Less bitter, smoother, more | Comments (CBD isolate nanoemulsion): Nice upfront bitterness reduction | Estimated % bitterness reduction (CBD isolate nanoemulsion): 60% | Estimated % bitterness reduction (THC nanoemulsion; THC nanoemulsion (10 mg THC per serving)): 60% | Comments (THC nanoemulsion; THC nanoemulsion): Nice upfront bitterness reduction | Significant? (caffeine in water; 2AFC, 90% confidence level, which sample is more bitter): Yes, | # Selected Variant (which is more bitter?) (caffeine in water; of 30 responses (10 panelists, 3 evaluations), control caffeine in water vs variant in caffeine water): 10 | inhibition of luminescence activity of Dextromethorphan-HBr (ATP secretion) ([4]; 100 μM Dextromethorphan-HBr, various blocker concentrations (FIG. 12)): able to inhibit | inhibition of the L-Praziquantel response (ATP secretion) ([4]; 400 μM L-Praziquantel, pooled donor-derived hTBEC (FIG. 13)): showed inhibition | inhibition of the bitter agonists (ATP secretion) ([4]; hTBEC 66, hTBEC 56, hTBEC Donor H, Dextromethorphan-HBr at 1000 μM, Theobromine 1,000 μM, Rebaudioside A 1 mM or Caffeine 3 mM (FIGS. 18-21)): trends of inhibition in most cases

Reference: US20230270148A1, “BITTER BLOCKERS AND RELATED METHODS OF USE” (Conagen Inc., priority 2020, published 2023)
